According to patent US4785001A, “Ergoline esters” (Farmitalia Carlo Erba S.p.A., priority 1986, dated 1988):

What was measured:
[1] = electroencephalographic effects (EEG) in the rat; assay type: in vivo; settings: 20 mg/Kg p.o.
Experimental: Moreover, the compound prepared in Example 1 was tested at the dose of 20 mg/Kg p.o. in the rat and the electroencephalographic effects (EEG) were observed. […] See Buonamici, M., Young, G. A. and Khazon (1982), Neuropharmacology, 21 : 825-829.

[2] = orientative acute toxicity (LD50), p.o. mice; settings: mouse, in vivo, po

Compound: CO[C@]12C[C@@H](COC(=O)C3=CN(C)C=CC3)CN(C)[C@@H]1Cc1cn(C)c3cccc2c13 [Example 1, 10-Methoxy-,1,6-dimethyl-8β-(1-methyl-,1,4-dihydro-3-pyridyl-carbonyloxymethyl)-ergoline]
- electroencephalographic effects (EEG) [1]: increased and long-lasting modifications
- LD50 [2]: > 800 mg/kg
